Measurements published in the supplement of paper PMC10307832.

Tests used:
Assay in all cases: relative viability (nuclei count vs DMSO), 5 days (fraction); higher = more cells survive
[1] = compound: C1COCCN1C2=NC(=NC3=C2OC4=C3C=CC=N4)C5=CC(=CC=C5)NC(=O)C6=CN=C(C=C6)N + C[C@]1(O)C[C@@H](c2nc(-c3ccc4ccc(-c5ccccc5)nc4c3)c3c(N)nccn32)C1 [Linsitinib] (partner 1 µM)
How it was run: (§1)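 Dosing by pin tool came one day after lung cancer cell lines were seeded in 1536-well plates, using either one drug or a fixed anchor-drug dose plus five library-drug doses (not always all listed) in √10 steps. After 5 days, nuclei were counted on 4× images. Relative viability is treated-well nuclei count divided by vehicle-well nuclei count, and values are medians of duplicate plates.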

[2] = compound: CN1CCC(CNc2ccc3ncc(-c4cccc(OC(F)(F)F)c4)n3n2)CC1 [SGI-1776] + Nc1ncn([C@H]2C[C@H](O)[C@@H](CO)O2)c(=O)n1 [Decitabine] (partner 2 µM)
How it was run: as §1

[3] = compound: Nc1ccccc1NC(=O)c1ccc(CNC(=O)OCc2cccnc2)cc1 [Entinostat] + Cc1nc(NC(=O)N2CCC[C@H]2C(N)=O)sc1-c1ccnc(C(C)(C)C(F)(F)F)c1 [Alpelisib] (partner 2 µM)
How it was run: as §1

[4] = compound: CN1CCC(CNc2ccc3ncc(-c4cccc(OC(F)(F)F)c4)n3n2)CC1 [SGI-1776] + COc1cc2c(Oc3ccc(NC(=O)C4(C(=O)Nc5ccc(F)cc5)CC4)cc3F)ccnc2cc1OCCCN1CCOCC1 [Foretinib] (partner 0.25 µM)
How it was run: as §1

Cell Line	relative viability ([1]; first compound 0.02 µM)	relative viability ([1]; first compound 0.06325 µM)	relative viability ([1]; first compound 0.2 µM)	relative viability ([1]; first compound 0.6325 µM)	relative viability ([1]; first compound 2 µM)	relative viability ([2]; first compound 0.08 µM)	relative viability ([2]; first compound 0.8 µM)	relative viability ([2]; first compound 2.53 µM)	relative viability ([2]; first compound 8 µM)	relative viability ([3]; first compound 0.02 µM)	relative viability ([3]; first compound 0.06325 µM)	relative viability ([3]; first compound 0.2 µM)	relative viability ([3]; first compound 0.6325 µM)	relative viability ([3]; first compound 2 µM)	relative viability ([4]; first compound 0.08 µM)	relative viability ([4]; first compound 0.8 µM)	relative viability ([4]; first compound 2.53 µM)	relative viability ([4]; first compound 8 µM)
NCI-H2085	0.839	1.02	0.885	0.82	0.456	0.549	0.505	0.606	0.556	0.947	0.946	0.766	0.634	0.502	0.864	0.864	0.852	0.715
NCI-H2347	0.917	0.966	0.979	0.98	0.877	0.631	0.673	0.639	0.577	1.09	0.99	0.865	0.391	0.343	0.836	0.862	0.531	0.84
ABC-1	0.724	0.93	0.713	0.635	0.538	1.08	1.09	0.909	0.954	0.949	1.14	0.966	0.661	0.48	1.06	0.974	0.984	0.64
201T	1	1.01	1.05	0.981	0.97	0.847	0.894	0.886	0.827	1.01	1.08	1.02	0.859	0.525	1.13	1.09	1.03	1.02
NCI-H1755	1.02	1.01	0.992	0.94	0.509	0.714	0.695	0.717	0.622	0.87	0.921	0.838	0.512	0.353	0.949	0.931	0.881	0.854
NCI-H596	0.959	1.15	1.1	0.96	0.727	1.02	1.05	1.15	0.997	0.533	0.496	0.272	0.411	0.356	0.808	0.748	0.79	1.05
NCI-H1651	0.996	0.917	0.957	1.09	0.357	0.622	0.726	0.65	0.499	1.08	0.979	0.994	0.748	0.372	0.787	0.75	0.985	0.794
NCI-H1437	1.05	1.08	1.07	1.01	0.314	0.553	0.598	0.645	0.495	0.822	0.594	0.388	0.167	0.138	1.23	1.29	1.37	1.17
NCI-H1975	0.882	0.983	0.897	0.905	0.476	0.43	0.391	0.431	0.377	0.454	0.38	0.38	0.247	0.204	0.961	0.943	0.827	0.692
BEN	0.953	0.94	1.05	0.941	0.569	0.733	0.711	0.635	0.554	1.21	0.944	1.02	0.6	0.275	0.72	0.623	0.472	0.552
NCI-H322M	0.817	0.981	0.884	0.924	0.759	0.724	0.753	0.65	0.658	0.817	0.826	0.738	0.866	0.675	0.93	1.07	0.859	0.683
SK-MES-1	0.99	1.24	1.13	1.04	0.791	0.365	0.372	0.367	0.303	0.932	1.02	1.05	0.81	0.682	1.06	0.762	0.857	0.648
HOP-62	0.675	0.967	0.825	0.934	0.773	0.214	0.221	0.214	0.242	1.02	0.9	0.929	0.599	0.348	1.2	1.13	1.03	1.1
HCC-366	0.918	0.82	0.574	0.472	0.207	0.335	0.382	0.373	0.316	0.537	0.521	0.43	0.327	0.0475	0.907	0.963	0.961	0.392
NCI-H2405	0.828	0.946	0.97	0.905	0.795	0.715	0.683	0.716	0.64	0.789	1.01	0.931	0.795	0.528	1.07	1	0.998	0.934
NCI-H1355	0.871	0.933	0.815	0.789	0.68	0.342	0.313	0.416	0.359	0.83	0.806	0.641	0.514	0.426	0.953	1.02	0.958	0.919
A549	0.59	0.636	0.6	0.455	0.283	0.303	0.238	0.285	0.097	0.851	0.729	0.704	0.515	0.238	1.07	0.891	0.752	0.277
NCI-H1793	0.953	0.845	0.834	0.911	0.475	0.49	0.512	0.516	0.509	0.584	0.79	0.583	0.621	0.388	0.953	0.597	0.5	0.184

Cell Line	relative viability ([1]; first compound 0.02 µM)	relative viability ([1]; first compound 0.06325 µM)	relative viability ([1]; first compound 0.2 µM)	relative viability ([1]; first compound 0.6325 µM)	relative viability ([1]; first compound 2 µM)	relative viability ([2]; first compound 0.08 µM)	relative viability ([2]; first compound 0.8 µM)	relative viability ([2]; first compound 2.53 µM)	relative viability ([2]; first compound 8 µM)	relative viability ([3]; first compound 0.02 µM)	relative viability ([3]; first compound 0.06325 µM)	relative viability ([3]; first compound 0.2 µM)	relative viability ([3]; first compound 0.6325 µM)	relative viability ([3]; first compound 2 µM)	relative viability ([4]; first compound 0.08 µM)	relative viability ([4]; first compound 0.8 µM)	relative viability ([4]; first compound 2.53 µM)	relative viability ([4]; first compound 8 µM)
NCI-H1734	0.865	0.938	0.86	0.84	0.467	0.517	0.499	0.567	0.486	0.765	0.779	0.681	0.737	0.581	0.786	0.913	0.927	0.483
LXF-289	1.02	1.07	0.975	0.986	0.76	0.384	0.366	0.369	0.326	1.01	1.02	0.931	0.808	0.588	0.98	0.974	1.01	0.971
PC-3 [JPC-3]	0.994	0.969	0.969	0.918	0.908	0.816	0.824	0.786	0.71	0.98	0.929	0.829	0.667	0.463	1.03	1.01	1.08	0.978
NCI-H2087	0.988	0.883	0.985	0.969	0.573	0.331	0.26	0.278	0.215	0.983	0.954	0.806	0.64	0.54	1.1	1.17	0.843	0.376
HCC-78	0.425	0.329	0.569	0.492	0.415	0.714	0.739	0.636	0.657	0.342	0.32	0.238	0.133	0.104	0.553	0.566	0.595	0.606
NCI-H1395	0.901	1	1.08	1.19	0.875	0.721	0.708	0.58	0.674	1.09	1.22	1.02	0.81	0.522	1.05	0.975	1.01	0.857
H3255	0.908	1.09	1.04	0.949	0.702	0.609	0.582	0.654	0.487	0.637	0.594	0.548	0.363	0.289	1.02	0.994	0.801	0.864
HCC-15	0.871	0.926	0.813	0.832	0.634	0.593	0.692	0.593	0.414	0.86	0.919	0.705	0.488	0.243	0.989	1.07	1.04	0.824
NCI-H727	0.284	0.31	0.24	0.257	0.256	0.875	1.01	1.01	0.613	0.708	0.669	0.545	0.264	0.297	0.988	0.971	0.926	0.671
NCI-H2023	0.639	0.755	0.602	0.543	0.333	0.224	0.207	0.228	0.182	0.475	0.5	0.319	0.165	0.128	0.96	0.857	0.675	0.328
COR-L23	1.16	0.978	0.933	1.04	0.543	0.445	0.456	0.466	0.342	0.658	0.632	0.547	0.321	0.175	0.976	0.92	1.02	0.931
EMC-BAC-2	0.815	0.83	0.749	0.762	0.491	0.964	0.994	1.08	0.915	0.797	0.795	0.776	0.636	0.394	1.02	0.99	1.11	0.846
LCLC-97TM1		0.199	0.174	0.232	0.22	0.234	0.206	0.26	0.236	0.262	0.224	0.245	0.225	0.156	0.932	0.952	0.945	0.829
LK-2	0.464	0.797	0.625	0.624	0.395	0.323	0.356	0.3	0.286	1.1	1.03	1.04	0.692	0.421	1.26	1.23	1.35	0.682
NCI-H3122	0.93	1.11	0.976	0.988	0.821	0.414	0.457	0.452	0.47	0.777	0.881	0.786	0.733	0.605	0.968	0.964	1.04	1.04
NCI-H2126	0.73	0.79	0.68	0.581	0.601	0.575	0.576	0.559	0.54	0.738	0.708	0.614	0.46	0.317	1.29	1.27	1.44	1.06
NCI-H520	1.09	1.08	1.07	1.08	0.373	0.46	0.523	0.511	0.414	0.836	0.848	0.963	0.764	0.451	0.826	0.895	0.783	0.51
